The IC50 is the midpoint of a concentration-inhibition curve.

Consider ten compounds from paper PMC12029069, “Synthesis and Evaluation of Antitumor and Anti-Angiogenesis Activity of Pyrone- or Pyridone-Embedded Analogs of Cortistatin A” (Marine Drugs, 2025).

Data set [1] relates to HUVECs. Put plainly: Antiproliferative activity against HUVECs (WST-8, 72 h). The settings on record: for IC50: 72 h, WST-8, average of triplicate; for S.I. (selective index: IC50 against KB3-1 cells/IC50 against HUVECs): KB3-1 over HUVECs. The class given is cell-based, human. The method, then:
HUVECs (5 × 10^5 cells/vial) were purchased from Kurabo Inc. and grown in HuMedia-EG2 medium with growth supplements (Kurabo, Osaka, Japan). HUVECs in the culture medium were plated into each well of 96-well plates (2 × 10^3 cells/well/100 µL). After 24 h, the serially diluted compounds as a 5% DMSO/EtOH or EtOH solution (1 µL) were added, and then the plates were incubated for an additional 72 h in a humidified atmosphere of 5% CO2 at 37 °C. The cell proliferation was detected by WST-8 colorimetric reagent (Nacalai Tesque, Inc., Kyoto, Japan). The IC50 value was determined by linear interpolation from the growth inhibition curve, and the averaged IC50 values of the triplicate experiment are shown in Table 1.
(In general: Tetrazolium assays rely on reduction of a dye to a coloured formazan, in cell work by metabolically active cells.)

Data set [2] has as its system human epidermoid carcinoma KB3-1 cells. As to the kind of experiment: Antiproliferative activity against KB3-1 cancer cells (WST-8, 72 h). The class given is cell-based. The method, then:
KB3-1 cells were cultured in RPMI-1640 medium supplemented with 10% heat-inactivated fetal bovine serum and kanamycin (50 μg/mL). Cells were plated into 96-well microplates at 2 × 10^3 cells/100 μL assay medium/well, and various concentrations of test compounds were added to each well as a 5% DMSO/EtOH or EtOH solution (1 µL). The plates were incubated at 37 °C in a humidified atmosphere of 5% CO2 for 72 h, and cell proliferation was determined by WST-8 colorimetric assay as above, and the averaged IC50 values of the triplicate experiment are shown in Table 1.

The test system is the same in data set [3]. The note with it: cited from earlier work.
The subject of data set [4] is HUVECs. The note with it: cited from earlier work; for S.I. (selective index: IC50 against KB3-1 cells/IC50 against HUVECs): KB3-1 over HUVECs.
Data set [5] has as its system Murine sarcoma S180 cells. As to the kind of experiment: In vivo antitumor effect in mice inoculated with sarcoma S180 cells. The settings on record: every other day for 14 days, S180 s.c. in ddY mice. An excerpt: Murine sarcoma S180 cells (1 × 10^6 cells/body) were implanted subcutaneously into the right ventral flank of female ddY mice (6 weeks old). After one week from implantation, analog 19 was orally administered on every other day for 14 days (total 7 times) as a suspension in 1% CMC-Na. Then, the tumor was isolated and weighed to calculate the inhibition ratio. The control group and the group treated with the testing compound consisted of six mice each in this study.

Data set [6] deals with new blood vessels in the Matrigel plug induced by bFGF. As to the kind of experiment: In vivo Matrigel plug assay (bFGF-induced angiogenesis, hemoglobin content). The arrangement: species or system mice. The settings on record: 0.3 mg/kg oral, every other day (5 times), day 10, mean ± SD. The protocol:
All animal procedures were approved by the Committee on Animal Experimentation of Osaka University (Approval number: DouYaku 24-8-1). The measurements of in vivo angiogenesis using Matrigel plugs were performed as described previously. An aliquot (250 µL) of Matrigel containing 200 ng/mL of bFGF and 100 U/mL of heparin was injected subcutaneously into the ventral side of female ddY mice (6 weeks old, N = 4, Japan SLC, Inc., Shizuoka, Japan). Then, analog 19 was orally administered on every other day (total 5 times: day 1, 3, 5, 7, and 9) as a suspension in 1% sodium carboxymethyl cellulose (CMC-Na). At day 10, the Matrigel plugs were photographed and removed. The levels of new vessels were quantified by measuring the hemoglobin of the Matrigel plug (µg hemoglobin/mg Matrigel) with the Drabkin reagent Kit.

The nature of data set [7]: Hepatic toxicity: AST and ALT activities in mouse serum. The class given is in vivo, mice. The note with it: 1 mg/kg oral treatment group, day 9. The method, then: The body weight of mice of the control group (bFGF (+) or (−)) and the groups treated with the testing compound (0.1, 0.3, and 1 mg/kg) at day 1 and day 9 were measured. […]
A short description of data set [8]: Body weight of mice during the Matrigel plug assay (acute toxicity). The class given is in vivo. The settings on record: mean ± SD. The protocol:
The body weight of mice of the control group (bFGF (+) or (−)) and the groups treated with the testing compound (0.1, 0.3, and 1 mg/kg) at day 1 and day 9 were measured. The mean activities of aspartate aminotransferase (AST) and alanine aminotransferase (ALT) in mouse serum at day 10 of control group and the 1 mg/kg treated group were measured using the LabAssay^TM AST or ALT kit (FUJIFILM Wako Pure Chemical Co., Osaka, Japan), respectively.

In a further data set the test system is CDK8. The note with it: ref [37]; cited from earlier work.
Setting [9] is: Homo sapiens, KB 3-1, WST-8, average of triplicate.

Where two headings read alike, the source gives them in different places. Marks after values point to notes of the source that are not given here.

As to `Cn1ccc2c(c1=O)C=C1CC[C@]3(C)[C@@H](c4ccc5ccncc5c4)CC[C@H]3[C@@H]1O2` [Compound 15, (3S,3aR,11aS,11bR)-3-(Isoquinolin-7-yl)-3a,8-dimethyl-2,3,3a,4,5,8,11a,11b-octahydrocyclopenta[7, 8]chromeno[3,2-c]pyridin-7(1H)-one], the IC50 in the data set with HUVECs [1] (Homo sapiens, HUVEC) was found to be 3 nM; in [2] (setting [9]), 8.6 µM. Besides, in the data set with HUVECs [1], the “S.I. (selective index: IC50 against KB3-1 cells/IC50 against HUVECs)” value amounted to 2870. Besides, in the data set with HUVECs [1] (relative to analog 13), the “fold potency over 13 against HUVECs” value is on record as 3.3 fold.
Consider `C[C@]12CCC3=Cc4c(cc[nH]c4=O)O[C@H]3[C@@H]1CC[C@@H]2c1ccc2ccncc2c1` [Compound 13, (3S,3aR,11aS,11bR)-3-(Isoquinolin-7-yl)-3a-methyl-2,3,3a,4,5,8,11a,11b-octahydrocyclopenta[7, 8]chromeno[3,2-c]pyridin-7(1H)-one], for which the IC50 was found to be 10 nM in the data set with HUVECs [1] (Homo sapiens, HUVEC) and 11 µM in data set [2] (setting [9]). For the same compound, the “S.I. (selective index: IC50 against KB3-1 cells/IC50 against HUVECs)” value in the data set with HUVECs [1] is listed as 1100. Moreover, the “fold higher potency than 7 against HUVECs” value in the data set with HUVECs [1] (relative to analog 7) worked out at 9 fold.
Consider `C[C@]12CCC3=CC4=C(CCCC4=O)O[C@H]3[C@@H]1CC[C@@H]2c1ccc2ccncc2c1` [Compound 2], for which the IC50 in data set [3] (reported value ref [21]) was 10.5 µM; in the data set with HUVECs [4] (reported value ref [21]), 35 nM. The “S.I. (selective index: IC50 against KB3-1 cells/IC50 against HUVECs)” value in the data set with HUVECs [4] (ref [21]) is on record as 300 ^c.
For `Cc1oc(=O)c2c(c1CO)O[C@@H]1C(=C2)CC[C@]2(C)[C@@H](c3ccc4ccncc4c3)CC[C@@H]12` [Compound 11, (3S,3aR,11aS,11bR)-10-(Hydroxymethyl)-3-(isoquinolin-7-yl)-3a,9-dimethyl-1,2,3,3a,4,5,11a,11b-octahydro-7H-cyclopenta[h]pyrano[4,3-b]chromen-7-one], the IC50 in the data set with HUVECs [1] (Homo sapiens, HUVEC) amounted to 20 nM; in data set [2] (setting [9]), 10 µM. Moreover, the “S.I. (selective index: IC50 against KB3-1 cells/IC50 against HUVECs)” value in the data set on HUVECs [1] came to 500.
With `Cc1cc2c(c(=O)o1)C=C1CC[C@]3(C)[C@@H](c4ccc5ccncc5c4)CC[C@H]3[C@@H]1O2` [Compound 7, (3S,3aR,11aS,11bR)-3-(Isoquinolin-7-yl)-3a,9-dimethyl-1,2,3,3a,4,5,11a,11b-octahydro-7H-cyclopenta[h]pyrano[4,3-b]chromen-7-one], the IC50 in the data set with HUVECs [1] (Homo sapiens, HUVEC) came out at 90 nM; in [2] (setting [9]), 62.8 µM. Further, the “S.I. (selective index: IC50 against KB3-1 cells/IC50 against HUVECs)” value in the data set on HUVECs [1] is reported as 700.
For `CC(=O)NCC1CC(=O)C2=C(C1)O[C@@H]1C(=C2)CC[C@]2(C)[C@@H](c3ccc4ccncc4c3)CC[C@@H]12` (stereo partly shown) [Compound 3], the IC50 in data set [3] (reported value ref [21]) is 8.2 µM; in the data set on HUVECs [4] (reported value ref [21]), 2.6 nM. In the data set on HUVECs [4] (ref [21]), the “S.I. (selective index: IC50 against KB3-1 cells/IC50 against HUVECs)” value is reported as 3150 ^c.
For the compound Cortistatin A [Compound 1], the figures for the IC50 (in data set [3] (reported value ref [8]); in the data set with HUVECs [4] (reported value ref [8])) were 7 µM and 1.8 nM, respectively. In addition, the “S.I. (selective index: IC50 against KB3-1 cells/IC50 against HUVECs)” value in the data set with HUVECs [4] (ref [8]) is on record as 3900 ^b.
With `Cn1cc(CO)c2c(c1=O)C=C1CC[C@]3(C)[C@@H](c4ccc5ccncc5c4)CC[C@H]3[C@@H]1O2` [Compound 19, (3S,3aR,11aS,11bR)-10-(Hydroxymethyl)-3-(isoquinolin-7-yl)-3a,8-dimethyl-2,3,3a,4,5,8,11a,11b-octahydrocyclopenta[7, 8]chromeno[3,2-c]pyridin-7(1H)-one], in the data set on HUVECs [1], the IC50 worked out at 1 nM and the “S.I. (selective index: IC50 against KB3-1 cells/IC50 against HUVECs)” value was 6400. Also, the “tumor growth inhibition, reduction compared to the control group” value in data set [5] (0.1 mg/kg oral) was ~ 75%. The tumor weight reduction entry in [5] (1 mg/kg oral) was “more than 85%”. The compound also gave an IC50 in [2] (WST-8, average of triplicate) of 6.4 µM. Also, the “Hb Content (hemoglobin µg/isolated Matrigel mg)” value in data set [6] was found to be 2.42 ± 0.79 µg/mg. In data set [7], the “ALT (alanine aminotransferase activity)” value was determined as 48.4 ± 3.3 IU/L and the “AST (aspartate aminotransferase activity)” value was found to be 57.8 ± 4.5 IU/L. In data set [8] (0.1 mg/kg oral), the “Body Weight Day 1” value was found to be 25.70 ± 0.58 g and the “Body Weight Day 9” value is given as 26.12 ± 0.58 g. In data set [8] (0.3 mg/kg oral), the “Body Weight Day 1” value is 25.60 ± 0.64 g and the “Body Weight Day 9” value came out at 26.14 ± 0.62 g. The “Body Weight Day 1” value in [8] (1.0 mg/kg oral) is recorded as 26.30 ± 0.41 g.
`CC(=O)NCc1c2c(c(=O)n(C)c1C)C=C1CC[C@]3(C)[C@@H](c4ccc5ccncc5c4)CC[C@H]3[C@@H]1O2` [Compound 27, N-(((3S,3aR,11aS,11bR)-3-(Isoquinolin-7-yl)-3a,8,9-trimethyl-7-oxo-1,2,3,3a,4,5,7,8,11a,11b-decahydrocyclopenta[7, 8]chromeno[3,2-c]pyridin-10-yl)methyl)acetamide]: in the data set on HUVECs [1], the IC50 was 10 nM and the “S.I. (selective index: IC50 against KB3-1 cells/IC50 against HUVECs)” value is listed as 1340. The compound also showed an IC50 in data set [2] (WST-8, average of triplicate) of 13.4 µM.
In the case of `CN(C)[C@H]1CC[C@@]2(C)[C@@H](CC[C@@H]3[C@@H]2CC[C@]2(C)[C@@H](c4ccc5ccncc5c4)CC[C@@H]32)C1` [Compound 28, reference compound], the IC50 with CDK8 was 24 nM; in the data set with HUVECs [1] (Homo sapiens, HUVEC) it was 560 nM; in data set [2] (setting [9]), 4.8 µM. For the same compound, the “S.I. (selective index: IC50 against KB3-1 cells/IC50 against HUVECs)” value with HUVECs [1] was 8.6.
